Reference: US5677341A, “Emulsion suitable for administering a sphingolipid” (priority 1996, dated 1997)

Legend:
[1] = primary amine group of sphingosine; cited from earlier work
[2] = acute toxicity in animals when administered in organic solvents or in aqueous vehicles; type: in vivo; details: similar doses, may include intravascular hemolysis and lung embolism
Experimental: (§1) The presently recommended dose of safingol, administered in the formulation described by the present invention, is 120 mg per square meter body surface or about 200 mg for a typical adult patient. A sterile emulsion is first diluted to a convenient drug concentration (typically about 0.5 mg/ml) using 5% dextrose for injection. A standard chemotherapeutic agent, such as cisplatin or doxorubicin, is co-infused with safingol over approximately a one hour time period. This therapy may be safety repeated every 14 to 21 days. […] Such toxicity may include intravascular hemolysis and lung embolism.

[3] = acute toxicity on administration in the emulsion (infusion); type: in vivo; details: 120 mg per square meter, diluted to about 0.5 mg/ml in 5% dextrose, approximately one hour co-infusion with cisplatin or doxorubicin
Experimental: as §1

[4] = tested on: protein kinase C; details: in vitro and in vivo; cited from earlier work

| SMILES | pKa [1] | acute toxicity, in organic solvents or in aqueous vehicles [2] | acute toxicity, administered in the emulsion of the invention [3] | inhibition of protein kinase C [4] |
| --- | --- | --- | --- | --- |
| CCCCCCCCCCCCC/C=C/[C@@H](O)[C@@H](N)CO [Sphingosine, 4-sphingenine] | ~ 6.5 | – | – | – |
| CCCCCCCCCCCCCCC[C@H](O)[C@@H](N)CO [safingol, (2S,3S)-2-amino-1,3-octadecanediol] | – | unacceptable acute toxicity is observed | no acute toxicity | potent inhibitors of protein kinase C, both in vitro and in vivo |
